Common to all, as to assay type: in vivo, ICR strain mice
For test [1], the system named is Herpes simplex virus type 1 Miyama strain. In words: Test 6: protective effect against virus infection. The conditions noted are these: 0.01 mg/kg i.p. 8, 7, 4, 3 and 2 days before i.p. HSV-1 infection; mice observed 14 days. On the procedure: (§1) Test animals: ICR strain mice, males, 4 weeks old, 10 to 20 animals per group.
(6) Test 6 (protective effect against virus infection)
Test animals: Same as Test 5.
Administration schedule: Each peptide of this invention in aqueous solution was intraperitoneally administered 8, 7, 4, 3 and 2 days before infection (0.01 mg/kg).
(§2) Method of virus infection: Herpes simplex virus type 1 Miyama strain (concentration: 2×10^3 pfu/ml) was suspended in sterile physiological saline and 0.2 ml of the suspension was intraperitoneally inoculated.

Test [2] has as its system Escherichia coli No. 22. In words: Test 1: protective effect against bacterial infection (i.p. 7, 6, 3, 2 and 1 day before infection). The conditions noted are these: mice observed 4 days. On the procedure:
(1) Test 1 (protective effect against bacterial infection)
as §1
(§3) Administration schedule: The peptides of this invention in predetermined concentrations (aqueous solutions) were intraperitoneally administered 7, 6, 3, 2 and 1 day before infection.
(§4) Method of bacterial infection: Escherichia coli No. 22, cultured at 37° C. for 20 hours (concentration: 2.0×10^8 cfu/ml), was suspended in sterile physiological saline and the test mice were intraperitoneally inoculated with 0.5 ml of the suspension.

Test [3] relates to Escherichia coli No. 22. Nature of the test: Test 2: protective effect against bacterial infection (i.p. 6, 5, 4 and 1 day before infection). The conditions noted are these: mice observed 4 days. On the procedure:
as §1, §4
(2) Test 2 (protective effect against bacterial infection)
(§5) Test animals: Same as Test 1.
Administration schedule: Each peptide of this invention in predetermined concentrations (aqueous solutions) was intraperitoneally administered 6, 5, 4 and 1 day before infection.
(§6) Method of bacterial infection: Same as Test 1.

Test [4] relates to Escherichia coli No. 22. In words: Test 3: protective effect against bacterial infection (i.p. 8, 7, 4, 3 and 2 days before infection). The note with it: mice observed 4 days. The procedure:
as §1, §4
(3) Test 3 (protective effect against bacterial infection)
Test animals: Same as Test 1
(§7) Administration schedule: Each peptide of this invention in predetermined concentrations (aqueous solutions) was intraperitoneally administered 8, 7, 4, 3 and 2 days before infection.
as §6

For test [5], the system named is Herpes simplex virus type 1 Miyama strain. In words: Test 4: protective effect against virus infection. The conditions noted are these: mice observed 14 days.
Source text: as §1
(4) Test 4 (protective effect against virus infection)
as §5, §7, §2

Test [6] concerns Escherichia coli No. 22. In words: Test 5: protective effect against bacterial infection (i.p. 7, 6, 3, 2 and 1 day before infection). The conditions noted are these: mice observed 4 days. The procedure: (5) Test 5 (protective effect against bacterial infection)
as §1, §3, §4

The mark [7] stands for this setting: 0.01 mg/kg i.p. 7, 6, 3, 2 and 1 day before i.p. E. coli infection.
Where [8] appears, read: 0.1 mg/kg i.p. 7, 6, 3, 2 and 1 day before i.p. E. coli infection.
Where [9] appears, read: 1.0 mg/kg i.p. 7, 6, 3, 2 and 1 day before i.p. E. coli infection.
The mark [10] stands for this setting: 1 mg/kg i.p. 6, 5, 4 and 1 day before i.p. E. coli infection.
The mark [11] stands for this setting: 0.01 mg/kg i.p. 8, 7, 4, 3 and 2 days before i.p. E. coli infection.
Setting [12] is: 0.1 mg/kg i.p. 8, 7, 4, 3 and 2 days before i.p. E. coli infection.
The mark [13] stands for this setting: 1.0 mg/kg i.p. 8, 7, 4, 3 and 2 days before i.p. E. coli infection.

Where a SMILES comes first, the peptide text is derived from it. [ ]: non-standard residue; d: D form. pGlu = O=C1CC[C@@H](C(=O)O)N1

Turning to `C[C@H](NC(=O)[C@H](CCCCN)NC(=O)[C@@H]1CCC(=O)N1)C(=O)N[C@@H](CCCCN)C(=O)N[C@@H](CCCCN)C(=O)N[C@@H](CCC(N)=O)C(=O)NCC(=O)NCC(=O)N[C@@H](CO)C(=O)N[C@@H](CC(N)=O)C(=O)O` [Example 16-(4), pGlu-Lys-Ala-Lys-Lys-Gln-Gly-Gly-Ser-Asn-OH] ([pGlu]KAKKQGGSN-OH), the “Survival rate (%)” value in test [1] turned out to be 85%.

`C[C@H](NC(=O)[C@@H]1CCC(=O)N1)C(=O)N[C@@H](CCCCN)C(=O)N[C@@H](CCCCN)C(=O)N[C@@H](CCC(N)=O)C(=O)NCC(=O)NCC(=O)N[C@@H](CO)C(=O)N[C@@H](CC(N)=O)C(=O)O` [Example 17-(2), pGlu-Ala-Lys-Lys-Gln-Gly-Gly-Ser-Asn-OH] ([pGlu]AKKQGGSN-OH): the “Survival rate (%)” value in test [1] is given as 90%.

Turning to “H-DLKEKKEVVEE-OH [Example 6-(2), H-Asp-Leu-Lys-Glu-Lys-Lys-Glu-Val-Val-Glu-Glu-OH]”, the “Survival rate (%)” value in the test on Escherichia coli No. 22 [2] (setting [7]) was 70%; in the test on Escherichia coli No. 22 [2] (setting [8]) it was 40%; in the test on Escherichia coli No. 22 [2] (setting [9]), 60%.

Turning to “H-EKLKSELVAN-OH [Example 4-(2), H-Glu-Lys-Leu-Lys-Ser-Glu-Leu-Val-Ala-Asn-OH]”, in the test on Escherichia coli No. 22 [3] (setting [10]), the “Survival rate (%)” value is 50%.

Consider “H-EQEKQ-OH [Example 11-(2), H-Glu-Gln-Glu-Lys-Gln-OH]”, for which the “Survival rate (%)” value in the test with Escherichia coli No. 22 [4] (setting [11]) was 70%; in the test on Escherichia coli No. 22 [4] (setting [12]) it was 50%; with Escherichia coli No. 22 [4] (setting [13]), 70%.

In the case of “H-KEKKE-OH [Example 14-(2), H-Lys-Glu-Lys-Lys-Glu-OH]”, the “Survival rate (%)” value is reported as 50% in the test with Escherichia coli No. 22 [4] (setting [11]), 50% with Escherichia coli No. 22 [4] (setting [12]) and 70% in the test with Escherichia coli No. 22 [4] (setting [13]).

As for “H-KETIEQEKQ-OH [Example 12-(2), H-Lys-Glu-Thr-Ile-Glu-Gln-Glu-Lys-Gln-OH]”, the “Survival rate (%)” value with Escherichia coli No. 22 [4] (setting [11]) turned out to be 70%; in the test on Escherichia coli No. 22 [4] (setting [12]) it was 50%; with Escherichia coli No. 22 [4] (setting [13]) it was 50%.

With “H-KFDKSKLKKTETQE-OH [Example 10-(2), H-Lys-Phe-Asp-Lys-Ser-Lys-Leu-Lys-Lys-Thr-Glu-Thr-Gln-Glu-OH]”, the “Survival rate (%)” value turned out to be 50% with Escherichia coli No. 22 [4] (setting [11]), 60% in the test with Escherichia coli No. 22 [4] (setting [12]) and 70% with Escherichia coli No. 22 [4] (setting [13]).

Regarding “H-KLKSE-OH [Example 15-(2), H-Lys-Leu-Lys-Ser-Glu-OH]”, the “Survival rate (%)” value in the test with Escherichia coli No. 22 [4] (setting [11]) is recorded as 80%; in the test on Escherichia coli No. 22 [4] (setting [12]), 100%; with Escherichia coli No. 22 [4] (setting [13]), 80%.

Consider “H-KSKLKKTETQE-OH [Example 9-(2), H-Lys-Ser-Lys-Leu-Lys-Lys-Thr-Glu-Thr-Gln-Glu-OH]”, for which the “Survival rate (%)” value in the test with Escherichia coli No. 22 [4] (setting [11]), with Escherichia coli No. 22 [4] (setting [12]) and with Escherichia coli No. 22 [4] (setting [13]) was 70% throughout.

As to “H-NVKAKIQDKEG-OH [Example 8-(2), H-Asn-Val-Lys-Ala-Lys-Ile-Gln-Asp-Lys-Glu-Gly-OH]”, the “Survival rate (%)” value is 80% with Escherichia coli No. 22 [4] (setting [11]), 60% with Escherichia coli No. 22 [4] (setting [12]) and 90% with Escherichia coli No. 22 [4] (setting [13]).

In the case of “H-SKLKSNSTHQ-OH [Example 1-(2), H-Ser-Lys-Leu-Lys-Ser-Asn-Ser-Thr-His-Gln-OH]”, the “Survival rate (%)” value with Escherichia coli No. 22 [3] (0.1 mg/kg i.p. 6, 5, 4 and 1 day before i.p. E. coli infection) was 40%; with Escherichia coli No. 22 [3] (setting [10]) it was 40%; in test [5] (0.01 mg/kg i.p. 8, 7, 4, 3 and 2 days before i.p. HSV-1 infection), 80%; in test [5] (0.1 mg/kg i.p. 8, 7, 4, 3 and 2 days before i.p. HSV-1 infection), 40%; in test [5] (1 mg/kg i.p. 8, 7, 4, 3 and 2 days before i.p. HSV-1 infection), 60%.

Take “H-TKDLKEKKEVVEE-OH [Example 7-(2), H-Thr-Lys-Asp-Leu-Lys-Glu-Lys-Lys-Glu-Val-Val-Glu-Glu-OH]”: the “Survival rate (%)” value is reported as 50% in the test on Escherichia coli No. 22 [2] (setting [7]), 70% with Escherichia coli No. 22 [2] (setting [8]) and 40% with Escherichia coli No. 22 [2] (setting [9]).

In the case of “H-TKEKLKSELVAN-OH [Example 5-(2), H-Thr-Lys-Glu-Lys-Leu-Lys-Ser-Glu-Leu-Val-Ala-Asn-OH]”, the “Survival rate (%)” value in the test with Escherichia coli No. 22 [3] (setting [10]) was determined as 50%.

For the compound “pGlu-Lys-Ala-Lys-Ser-Gln-Gly-Gly-Ser-Asn-OH ([pGlu]KAKSQGGSN-OH; SMILES C[C@H](NC(=O)[C@H](CCCCN)NC(=O)[C@@H]1CCC(=O)N1)C(=O)N[C@@H](CCCCN)C(=O)N[C@@H](CO)C(=O)N[C@@H](CCC(N)=O)C(=O)NCC(=O)NCC(=O)N[C@@H](CO)C(=O)N[C@@H](CC(N)=O)C(=O)O) [Example 18-(2)]”, the “Survival rate (%)” value was determined as 60% in the test on Escherichia coli No. 22 [6] (setting [7]), 70% in the test with Escherichia coli No. 22 [6] (setting [8]) and 80% in the test on Escherichia coli No. 22 [6] (setting [9]).

Values taken from patent US4497801A, “New peptides, process for preparation thereof and use thereof” (Fujisawa Pharmaceutical Co., Ltd., priority 1982, dated 1985).
